Reference: patent publication US11873298B2, “Compounds and uses thereof” (JANSSEN PHARMACEUTICA NV, priority 2017, dated 2024)

Experiments:
SCD5 = biological target: T1, SCD5 (Homo sapiens, UniProt Q86SK9); assay: Growth inhibition of humanized yeast strain expressing SCD5 as sole desaturase; format: cell-based
T1 construct: host or cells: S. cerevisiae ole1Δ strain (W303 pdr1Δ pdr3Δ background), plasmid pRS316 with TDH3 promoter and CYC1 terminator
T1 sequence (Q86SK9 1-330): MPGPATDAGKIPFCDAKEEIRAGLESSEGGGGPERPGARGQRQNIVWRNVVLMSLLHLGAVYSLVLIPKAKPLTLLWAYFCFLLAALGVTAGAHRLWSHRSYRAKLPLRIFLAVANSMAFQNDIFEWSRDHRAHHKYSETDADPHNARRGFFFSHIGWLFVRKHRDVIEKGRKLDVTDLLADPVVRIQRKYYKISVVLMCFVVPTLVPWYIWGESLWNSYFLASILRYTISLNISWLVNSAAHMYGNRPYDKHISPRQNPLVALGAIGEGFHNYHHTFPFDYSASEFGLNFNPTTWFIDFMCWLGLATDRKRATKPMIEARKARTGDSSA
Procedure, shortened: (§1)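 OD600 growth read-out. ole1Δ yeast, pdr1Δ pdr3Δ, with Ole1/SCD1/SCD5 on a plasmid; SX-Ura media throughout; 2× cell density 0.02 in CSM-Galactose; DMSO compound dilutions; humidified 30° C.; Ole1 stopped at 24 h, SCD1/SCD5 at 40 h.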

SCD1 = biological target: T2, SCD1 (Homo sapiens, UniProt O00767); assay: Growth inhibition of humanized yeast strain expressing SCD1 as sole desaturase; format: cell-based
T2 construct: host or cells: S. cerevisiae ole1Δ strain (W303 pdr1Δ pdr3Δ background), plasmid pRS316 with TDH3 promoter and CYC1 terminator
T2 sequence (O00767 1-359): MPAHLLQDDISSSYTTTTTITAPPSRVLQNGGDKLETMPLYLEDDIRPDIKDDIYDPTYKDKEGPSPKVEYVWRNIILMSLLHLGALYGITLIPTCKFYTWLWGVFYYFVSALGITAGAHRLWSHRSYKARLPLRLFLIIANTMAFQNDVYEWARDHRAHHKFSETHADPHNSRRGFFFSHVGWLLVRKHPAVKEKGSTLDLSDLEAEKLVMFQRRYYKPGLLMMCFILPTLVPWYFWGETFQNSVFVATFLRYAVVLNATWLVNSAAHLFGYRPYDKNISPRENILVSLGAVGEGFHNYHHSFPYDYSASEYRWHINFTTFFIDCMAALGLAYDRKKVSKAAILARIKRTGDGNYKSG
Procedure, shortened: as §1

[1] = growth inhibition of humanized yeast strain expressing human SCD5
[2] = growth inhibition of humanized yeast strain expressing human SCD1
[3] = humanized yeast strain expressing SCD5
[4] = humanized yeast strain expressing SCD1

## CC(C)N1C(=O)Cc2ccc(-c3noc(C4CCN(C(=O)CC(C)(C)C)CC4)n3)cc21 [Compound 611]
SCD5; [1]
  IC50: 7.48 µM
SCD1; [2]
  IC50: > 45 µM

## CC(C)(C)OC(=O)N1CC(c2nc(-c3ccc4cnn(C5COC5)c4c3)no2)C1 [Compound 700]
SCD5; [1]
  IC50: 0.703 µM
SCD1; [2]
  IC50: > 45 µM

## O=C(OC1CC1)N1CCC(c2nc(-c3ccc4cnn(C5COC5)c4c3)no2)CC1 [Compound 618]
SCD5; [1]
  IC50: 0.101 µM
SCD1; [2]
  IC50: > 45 µM

## CC(C)(C)OC(=O)N1CCC(c2noc(-c3ccc4cnn([C@@H]5CCOC5)c4c3)n2)CC1 [Compound 1092]
SCD5; humanized yeast strain, 40 h
  IC50: 0.01 µM
SCD1; humanized yeast strain, 40 h
  IC50: 32.3 µM

## O=C(c1ccccc1F)N1CCC(c2noc(-c3ccnc(NC4COC4)c3)n2)CC1 [Compound 1157]
SCD5; humanized yeast strain, 40 h
  IC50: > 45 µM
SCD1; humanized yeast strain, 40 h
  IC50: > 45 µM

## CC(C)(C)OC(=O)N1CCC(c2cnc(-c3ccc4cnn(C5COC5)c4c3)nc2)CC1 [Compound 985]
SCD5; humanized yeast strain, 40 h
  IC50: 2.56 µM
SCD1; humanized yeast strain, 40 h
  IC50: > 45 µM

## CC(C)n1ncc2ccc(-c3noc(C4CCCN(C(=O)OC(C)(C)C)C4)n3)cc21 (centres unmarked) [Compound 563]
SCD5; [3]
  IC50: > 45 µM
SCD1; [4]
  IC50: > 45 µM

## CC(C)(C)OC(=O)N1CCC(c2nc(-c3ccc4c(c3)N(C3COC3)C(=O)CC4)no2)CC1 [Compound 662]
SCD5; [1]
  IC50: > 45 µM
SCD1; [2]
  IC50: > 45 µM

## O=C(N1CCC(c2noc(-c3ccc4cnn(C5CCOC5)c4c3)n2)CC1)C1(F)CCC1 (centres unmarked) [Compound 1028]
SCD5; humanized yeast strain, 40 h
  IC50: 0.01 µM
SCD1; humanized yeast strain, 40 h
  IC50: 0.953 µM

## O=C(C1CCC1)N1CCN(c2noc(-c3ccc4cnn(C5COC5)c4c3)n2)CC(F)(F)C1 [Compound 1046]
SCD5; humanized yeast strain, 40 h
  IC50: 0.01 µM
SCD1; humanized yeast strain, 40 h
  IC50: ≥ 45 µM

## CC(C)n1ncc2ccc(-c3noc(C4CCN(C(=O)C5CC(=O)N(C)C5(C)C)CC4)n3)cc21 (centres unmarked) [Compound 616]
SCD5; [1]
  IC50: > 45 µM
SCD1; [2]
  IC50: > 45 µM

## CC(C)n1ncc2ccc(-c3noc(C4CCN(C(=O)C5(C#N)CC5)CC4)n3)cc21 [Compound 688]
SCD5; [1]
  IC50: 1.5 µM
SCD1; [2]
  IC50: > 45 µM

## CC(C)(C)OC(=O)N1CC(c2noc(-c3ccc4cnn(C5COC5)c4c3)n2)C1 [Compound 926]
SCD5; humanized yeast strain, 40 h
  IC50: > 45 µM
SCD1; humanized yeast strain, 40 h
  IC50: > 45 µM

## CC(C)n1ncc2ccc(-c3noc(C4CCN(C(=O)CNC(=O)c5ccc(Cl)cc5)CC4(F)F)n3)cc21 (centres unmarked) [Compound 521]
SCD5; [3]
  IC50: 8.79 µM
SCD1; [4]
  IC50: > 45 µM

## COC(=O)N1CCC(c2noc(-c3cc(F)c4cnn(C5COC5)c4c3)n2)CC1 [Compound 875]
SCD5; humanized yeast strain, 40 h
  IC50: 0.02 µM
SCD1; humanized yeast strain, 40 h
  IC50: > 45 µM

## O=C(C1CC1)N1CCC(c2nc(-c3ccnc(F)c3)no2)CC1 [Compound 1128]
SCD5; humanized yeast strain, 40 h
  IC50: > 45 µM
SCD1; humanized yeast strain, 40 h
  IC50: > 45 µM

## C[C@H]1C[C@H](c2noc(-c3ccc4cnn(C5COC5)c4c3)n2)CCN1C(=O)OC(C)(C)C [Compound 1018]
SCD5; humanized yeast strain, 40 h
  IC50: 0.01 µM
SCD1; humanized yeast strain, 40 h
  IC50: 20.3 µM

## CC(C)(C)CC(=O)N1CCC(c2nc(-c3ccc4cnn(C(=O)C5COC5)c4c3)no2)CC1 [Compound 694]
SCD5; [1]
  IC50: > 45 µM
SCD1; [2]
  IC50: > 45 µM

## COC(=O)N1CCC(c2noc(-c3cnc4cnn(C5COC5)c4c3)n2)CC1 [Compound 1052]
SCD5; humanized yeast strain, 40 h
  IC50: 0.253 µM
SCD1; humanized yeast strain, 40 h
  IC50: > 45 µM

## CC(C1CC1)n1ncc2ccc(-c3noc(C4CCN(C(=O)OC(C)(C)C)CC4)n3)cc21 (centres unmarked) [Compound 640]
SCD5; [1]
  IC50: 3.98 µM
SCD1; [2]
  IC50: > 45 µM

## O=C(c1ncccc1F)N1CCC(c2noc(-c3ccc4cnn(C5COC5)c4c3)n2)CC1 [Compound 881]
SCD5; humanized yeast strain, 40 h
  IC50: 0.01 µM
SCD1; humanized yeast strain, 40 h
  IC50: > 45 µM

## O=C(C1CCC1)N1CCC(c2cc(-c3cc4c(cn3)cnn4C3COC3)on2)CC1 [Compound 1109]
SCD5; humanized yeast strain, 40 h
  IC50: 0.05 µM
SCD1; humanized yeast strain, 40 h
  IC50: > 45 µM

## Cc1nn(C)c2cc(-c3noc(C4CCN(C(=O)CC5CNC5)CC4)n3)ccc12 [Compound 680]
SCD5; [1]
  IC50: > 45 µM
SCD1; [2]
  IC50: > 45 µM

## CC(C)(C)OC(=O)N1CCC(c2noc(-c3cccc(N4CCOCC4)c3)n2)CC1 [Compound 979]
SCD5; humanized yeast strain, 40 h
  IC50: 0.168 µM
SCD1; humanized yeast strain, 40 h
  IC50: > 45 µM

## CC(C)(C)CC(=O)N1CCC(c2nc(-c3ccc4cnn(C(=O)C5CCO5)c4c3)no2)CC1 (centres unmarked) [Compound 727]
SCD5; [1]
  IC50: > 45 µM
SCD1; [2]
  IC50: > 45 µM

## CC(C)c1noc2ccc(-c3noc(C4CCN(C(=O)C5CCC5)CC4)n3)cc12 [Compound 968]
SCD5; humanized yeast strain, 40 h
  IC50: 2.83 µM
SCD1; humanized yeast strain, 40 h
  IC50: > 45 µM

## CC1(OC(=O)N2CCC(c3noc(-c4cc(F)c5cnn(C6COC6)c5c4)n3)CC2)CC1 [Compound 1069]
SCD5; humanized yeast strain, 40 h
  IC50: 0.000862 µM
SCD1; humanized yeast strain, 40 h
  IC50: > 45 µM

## CC(C)(C)OC(=O)N1CCC(c2nc(-c3ccc4cnn(CC5COC5)c4c3)no2)CC1 [Compound 661]
SCD5; [1]
  IC50: 1.54 µM
SCD1; [2]
  IC50: > 45 µM
